In ChEMBL document CHEMBL5506069, “A Unique Hybridization Route to Access Hydrazylnaphthalimidols as Novel Structural Scaffolds of Multitargeting Broad-Spectrum Antifungal Candidates” (J Med Chem, 2024):
In brackets after ≈: the same amount, converted by molar mass. Activity calls are given as the source filed them. The calls are words filed in the database; no cut-off is given here.

Legend:
Candida albicans [1] = assay: Antifungal activity against Candida albicans assessed as inhibition of fungal growth incubated for 24 hrs by CLSI based microbroth dilution method; assay type: functional
Candida albicans [2] = assay: Antifungal activity against Candida albicans ATCC 90023 assessed as inhibition of fungal growth incubated for 24 hrs by CLSI based microbroth dilution method; assay type: functional
Aspergillus fumigatus [3] = assay: Antifungal activity against Aspergillus fumigatus assessed as inhibition of fungal growth incubated for 24 hrs by CLSI based microbroth dilution method; assay type: functional
Candida tropicalis = assay: Antifungal activity against Candida tropicalis assessed as inhibition of fungal growth incubated for 24 hrs by CLSI based microbroth dilution method; assay type: functional
Candida parapsilosis = assay: Antifungal activity against Candida parapsilosis ATCC 22019 assessed as inhibition of fungal growth incubated for 24 hrs by CLSI based microbroth dilution method; assay type: functional; conditions: Lodderomyces parapsilosis
Cell membrane = assay: Induction of cell membrane potential loss in Candida albicans assessed as change in fluorescence intensity at 4 times MIC measured for 30 mins by DiSC3-5 dye based fluorescence method; assay type: subcellular
Aspergillus fumigatus [4] = assay: Potency index, ratio of fluconazole MIC to test compound MIC for antifungal activity against Aspergillus fumigatus assessed as inhibition of fungal growth incubated for 24 hrs by CLSI based microbroth dilution method; assay type: functional
Candida albicans [5] = assay: Antifungal activity against Candida albicans measured after at 8 passages; assay type: functional, organism-based
Candida albicans [6] = assay: Antibiofilm activity against Candida albicans assessed as inhibition of biofilm formation at 0.5 to 8 microg/ml measured for 24 hrs by crystal violet staining based; assay type: functional; conditions: dose 0.5-8 µg/ml
Candida albicans [7] = assay: Potency index, ratio of fluconazole MIC to test compound MIC for antifungal activity against Candida albicans ATCC 90023 assessed as inhibition of fungal growth incubated for 24 hrs by CLSI based microbroth dilution method; assay type: functional

Row | SMILES | MIC (Candida albicans [1]) [µM] | MIC (Candida albicans [2]) [µM] | MIC (Aspergillus fumigatus [3]) [µM] | MIC (Candida tropicalis) [µM] | MIC (Candida parapsilosis) [µM] | Activity (Cell membrane) | Ratio (Aspergillus fumigatus [4]) | Activity (Candida albicans [5]) | inhibition (Candida albicans [6]) | Ratio (Candida albicans [7])
1 | O=C1c2cccc3c(N/N=C/c4ccc[n+](Cc5ccc([N+](=O)[O-])cc5)c4)ccc(c23)C(=O)N1CCO | 56 | 56 | 111 | 111 | 14 | inactive | – | – | – | –
2 | C[n+]1cccc(/C=N/Nc2ccc3c4c(cccc24)C(=O)N(CCO)C3=O)c1.[I-] | 32 | 16 | 8 | 64 | 127 | – | 52 | – | – | –
3 | OC(Cn1cncn1)(Cn1cncn1)c1ccc(F)cc1F [FLUCONAZOLE] | 13 (≈ 3.98 µg/mL) | 33 (≈ 10.1 µg/mL) | 418 (≈ 128 µg/mL) | 13 (≈ 3.98 µg/mL) | 26 (≈ 7.96 µg/mL) | – | – | inactive | inactive | –
4 | NNc1ccc2c3c(cccc13)C(=O)N(CCO)C2=O | 118 (≈ 32 µg/mL) | 118 (≈ 32 µg/mL) | 118 (≈ 32 µg/mL) | 118 (≈ 32 µg/mL) | 236 (≈ 64 µg/mL) | – | – | – | – | –
5 | CCCCc1nc(Cl)c(/C=N/Nc2ccc3c4c(cccc24)C(=O)N(CCO)C3=O)n1CC1CC1 | 65 (≈ 32.1 µg/mL) | 8 (≈ 3.95 µg/mL) | 8 (≈ 3.95 µg/mL) | 32 (≈ 15.8 µg/mL) | 65 (≈ 32.1 µg/mL) | – | – | – | – | –
6 | O=C1c2cccc3c(N/N=C/c4cnc(-c5ccccc5)s4)ccc(c23)C(=O)N1CCO | 87 (≈ 38.5 µg/mL) | 22 (≈ 9.74 µg/mL) | 44 (≈ 19.5 µg/mL) | 87 (≈ 38.5 µg/mL) | 5 (≈ 2.21 µg/mL) | – | – | – | – | –
7 | CCCCc1nc(Cl)c(/C=N/Nc2ccc3c4c(cccc24)C(=O)N(CCO)C3=O)n1CCC | 133 (≈ 64.1 µg/mL) | 67 (≈ 32.3 µg/mL) | 33 (≈ 15.9 µg/mL) | 67 (≈ 32.3 µg/mL) | 266 (≈ 128 µg/mL) | – | – | – | – | –
8 | O=C1c2cccc3c(N/N=C/c4ccc[nH]4)ccc(c23)C(=O)N1CCO | 183 (≈ 63.8 µg/mL) | 92 (≈ 32 µg/mL) | 367 (≈ 128 µg/mL) | 367 (≈ 128 µg/mL) | 46 (≈ 16 µg/mL) | – | – | – | – | –
9 | CCCCc1nc(Cl)c(/C=N/Nc2ccc3c4c(cccc24)C(=O)N(CCO)C3=O)n1Cc1ccc(F)cc1 | 58 (≈ 31.8 µg/mL) | 4 (≈ 2.19 µg/mL) | 117 (≈ 64.1 µg/mL) | 58 (≈ 31.8 µg/mL) | 58 (≈ 31.8 µg/mL) | – | – | – | – | –
10 | COc1ccc(N2C(=O)c3cccc4c(N/N=C(\C)Cn5c([N+](=O)[O-])cnc5C)ccc(c34)C2=O)cc1 | 514 (≈ 256 µg/mL) | 1030 (≈ 512 µg/mL) | 1030 (≈ 512 µg/mL) | 514 (≈ 256 µg/mL) | 257 (≈ 128 µg/mL) | – | – | – | – | –
11 | O=C1c2cccc3c(N/N=C/c4cncs4)ccc(c23)C(=O)N1CCO | 350 (≈ 128 µg/mL) | 44 (≈ 16.1 µg/mL) | 175 (≈ 64.1 µg/mL) | 87 (≈ 31.9 µg/mL) | 22 (≈ 8.06 µg/mL) | – | – | – | – | –
12 | O=C1c2cccc3c(N/N=C/C=C/c4ccc([N+](=O)[O-])o4)ccc(c23)C(=O)N1CCO | 9 (≈ 3.78 µg/mL) | 38 (≈ 16 µg/mL) | 76 (≈ 31.9 µg/mL) | 38 (≈ 16 µg/mL) | 152 (≈ 63.9 µg/mL) | – | – | – | – | –
13 | CCN1C(=O)c2cccc3c(N/N=C/c4ccc([N+](=O)[O-])o4)ccc(c23)C1=O | 42 (≈ 15.9 µg/mL) | 84 (≈ 31.8 µg/mL) | 338 (≈ 128 µg/mL) | 84 (≈ 31.8 µg/mL) | 168 (≈ 63.6 µg/mL) | – | – | – | – | –
14 | CCCCc1nc(Cl)c(/C=N/Nc2ccc3c4c(cccc24)C(=O)N(CCO)C3=O)n1Cc1cccc(Cl)c1 | 57 (≈ 32.2 µg/mL) | 2 (≈ 1.13 µg/mL) | 114 (≈ 64.3 µg/mL) | 28 (≈ 15.8 µg/mL) | 57 (≈ 32.2 µg/mL) | – | – | – | – | 16
15 | CCCCCCN1C(=O)c2cccc3c(N/N=C(\C)Cn4c([N+](=O)[O-])cnc4C)ccc(c23)C1=O | 1070 (≈ 512 µg/mL) | 1070 (≈ 512 µg/mL) | 1070 (≈ 512 µg/mL) | 1070 (≈ 512 µg/mL) | 1070 (≈ 512 µg/mL) | – | – | – | – | –
16 | C=CCn1c(CCCC)nc(Cl)c1/C=N/Nc1ccc2c3c(cccc13)C(=O)N(CCO)C2=O | 67 (≈ 32.2 µg/mL) | 33 (≈ 15.8 µg/mL) | 17 (≈ 8.16 µg/mL) | 2 (≈ 0.96 µg/mL) | 134 (≈ 64.3 µg/mL) | – | – | – | – | –
17 | CCCCCCCn1c(CCCC)nc(Cl)c1/C=N/Nc1ccc2c3c(cccc13)C(=O)N(CCO)C2=O | 119 (≈ 64 µg/mL) | 119 (≈ 64 µg/mL) | 119 (≈ 64 µg/mL) | 60 (≈ 32.3 µg/mL) | 238 (≈ 128 µg/mL) | – | – | – | – | –
18 | C/C(Cn1c([N+](=O)[O-])cnc1C)=N\Nc1ccc2c3c(cccc13)C(=O)N(c1ccc(Cl)cc1Cl)C2=O | 238 (≈ 128 µg/mL) | 953 (≈ 512 µg/mL) | 238 (≈ 128 µg/mL) | 238 (≈ 128 µg/mL) | 119 (≈ 63.9 µg/mL) | – | – | – | – | –
19 | CCCCCN1C(=O)c2cccc3c(N/N=C(\C)Cn4c([N+](=O)[O-])cnc4C)ccc(c23)C1=O | 1110 (≈ 512 µg/mL) | 1110 (≈ 512 µg/mL) | 554 (≈ 256 µg/mL) | 1110 (≈ 512 µg/mL) | 554 (≈ 256 µg/mL) | – | – | – | – | –
